How the values were obtained:
Assay type in all cases: in vitro ADME
Conditions in all cases: 5 μM, equilibrium dialysis 4 hours at 37° C.
plasma protein [1] = assay: Plasma protein binding rate test by equilibrium dialysis method, mouse plasma
Experimental: (§1) Plasma protein binding rates of the compounds were determined by equilibrium dialysis method (W. Lindner et al, J. Chromatography, 1996, 677, 1-28). Each test compound was dissolved in distilled water at concentration of 200 μM. The solution was added to the plasma of mouse, dog, rabbit, monkey and human respectively, at the amount to obtain the final concentration of 5 μM. This solution (300 μL) and PBS solution (500 μL) were added to each dialysis cell of equilibrium dialysis unit RED device (Pierce Biotechnology), and the cells were shaken at 100 rpm at 37° C. After 4 hours, samples of plasma and the buffer were collected, and the fluorescence intensity of each was measured by EnVision ([…]). After the concentrations were calculated from a calibration curve, the concentrations (%) of free test compound in plasma were determined.

plasma protein [2] = assay: Plasma protein binding rate test by equilibrium dialysis method, rabbit plasma
Experimental: as §1

plasma protein [3] = assay: Plasma protein binding rate test by equilibrium dialysis method, human plasma
Experimental: as §1

plasma protein [4] = assay: Plasma protein binding rate test by equilibrium dialysis method, dog plasma
Experimental: as §1

plasma protein [5] = assay: Plasma protein binding rate test by equilibrium dialysis method, monkey plasma
Experimental: as §1

| Plasma protein binding rate (%) mouse (plasma protein [1]) | Plasma protein binding rate (%) rabbit (plasma protein [2]) | Plasma protein binding rate (%) human (plasma protein [3]) | Plasma protein binding rate (%) dog (plasma protein [4]) | Plasma protein binding rate (%) monkey (plasma protein [5]) | SMILES |
| --- | --- | --- | --- | --- | --- |
| 46% | 61% | 56% | 50% | 67% | CC1(C)C(=CC=CC=CC=CC2=[N+](CCP(=O)([O-])[O-])c3ccc(S(=O)(=O)[O-])cc3C2(C)C)N(CCP(=O)([O-])[O-])c2ccc(S(=O)(=O)[O-])cc21.[Na+].[Na+].[Na+].[Na+].[Na+] [Compound 9] |
| 77% | 95% | 95% | 77% | 92% | CC1(C)C(/C=C/C=C(/C=C/C=C2\N(CCC(=O)[O-])c3ccc(P(=O)([O-])[O-])cc3C2(C)C)c2ccccc2)=[N+](CCC(=O)[O-])c2ccc(P(=O)([O-])[O-])cc21.[Na+].[Na+].[Na+].[Na+].[Na+] [Compound 16] |
| – | 87% | 94% | 71% | 95% | CC1(C)C(/C=C/C=C/C=C/C=C2/N(CCS(=O)(=O)[O-])c3ccc(P(=O)([O-])[O-])cc3C2(C)C)=[N+](CCS(=O)(=O)[O-])c2ccc(P(=O)([O-])[O-])cc21.[Na+].[Na+].[Na+].[Na+].[Na+] [Compound 14] |
| – | 88% | 92% | – | 93% | CC(/C=C/C=C1\N(CCS(=O)(=O)[O-])c2ccc(S(=O)(=O)[O-])cc2C1(C)C)=C\C=C\C1=[N+](CCS(=O)(=O)[O-])c2ccc(S(=O)(=O)[O-])cc2C1(C)C.[Na+].[Na+].[Na+] [Compound B, reference compound] |
| 63% | 79% | 93% | 59% | 91% | CC(/C=C/C=C1\N(CCC(=O)[O-])c2ccc(P(=O)([O-])[O-])cc2C1(C)C)=C\C=C\C1=[N+](CCC(=O)[O-])c2ccc(P(=O)([O-])[O-])cc2C1(C)C.[Na+].[Na+].[Na+].[Na+].[Na+] [Compound 17] |
| 27% | 79% | 82% | 29% | 87% | CC1(C)C(/C=C/C=C/C=C/C=C2\N(CCS(=O)(=O)[O-])c3ccc(S(=O)(=O)[O-])cc3C2(C)C)=[N+](CCS(=O)(=O)[O-])c2ccc(S(=O)(=O)[O-])cc21.[Na+].[Na+].[Na+] [Compound A, reference compound] |
| – | 88% | 88% | 59% | 79% | CC1(C)C(/C=C/C=C/C=C/C=C2/N(CCCCC(=O)O)c3ccc(S(=O)(=O)O)cc3C2(C)C)=[N+](CCCCC(=O)O)c2ccc(S(=O)(=O)O)cc21.[Na+].[Na+] [Compound 6] |
| 59% | 82% | 96% | – | 95% | CC(/C=C/C=C1\N(CCS(=O)(=O)[O-])c2ccc(P(=O)([O-])[O-])cc2C1(C)C)=C\C=C\C1=[N+](CCS(=O)(=O)[O-])c2ccc(P(=O)([O-])[O-])cc2C1(C)C.[Na+].[Na+].[Na+].[Na+].[Na+] [Compound 18] |
| 53% | – | – | 52% | – | CC1(C)C(/C=C/C=C/C=C/C=C2/N(CCCP(=O)(O)O)c3ccc(S(=O)(=O)O)cc3C2(C)C)=[N+](CCCP(=O)(O)O)c2ccc(S(=O)(=O)O)cc21.[Na+].[Na+].[Na+].[Na+].[Na+].[Na+] [Compound 10] |
| 57% | 67% | 74% | 50% | 71% | CC1(C)C(/C=C/C=C/C=C/C=C2\N(CC(=O)O)c3ccc(S(=O)(=O)[O-])cc3C2(C)C)=[N+](CC(=O)O)c2ccc(S(=O)(=O)[O-])cc21.[Na+] [Compound 4] |
| 91% | 95% | 95% | 82% | 93% | CC1(C)C(/C=C/C=C(/C=C/C=C2\N(CCCP(=O)([O-])[O-])c3ccc(S(=O)(=O)[O-])cc3C2(C)C)c2ccccc2)=[N+](CCCP(=O)([O-])[O-])c2ccc(S(=O)(=O)[O-])cc21.[Na+].[Na+].[Na+].[Na+].[Na+] [Compound 12] |
| – | 87% | 89% | – | 90% | CC1(C)C(/C=C/C=C/C=C/C=C2/N(CCC(=O)[O-])c3ccc(P(=O)([O-])[O-])cc3C2(C)C)=[N+](CCC(=O)[O-])c2ccc(P(=O)([O-])[O-])cc21.[Na+].[Na+].[Na+].[Na+].[Na+] [Compound 13] |
| 91% | 98% | 98% | 83% | 97% | CC1(C)C(/C=C/C=C(/C=C/C=C2\N(CCP(=O)([O-])[O-])c3ccc(S(=O)(=O)[O-])cc3C2(C)C)c2ccccc2)=[N+](CCP(=O)([O-])[O-])c2ccc(S(=O)(=O)[O-])cc21.[Na+].[Na+].[Na+].[Na+].[Na+] [Compound 11] |
| – | 94% | 93% | – | 96% | CC1(C)C(/C=C/C=C(/C=C/C=C2\N(CCS(=O)(=O)[O-])c3ccc(P(=O)([O-])[O-])cc3C2(C)C)c2ccccc2)=[N+](CCS(=O)(=O)[O-])c2ccc(P(=O)([O-])[O-])cc21.[Na+].[Na+].[Na+].[Na+].[Na+] [Compound 15] |
